# Experimental data as given in patent US12491191B2, “Inhibition of interaction between OCT4 and MAPKAPK2 or DNA-PKcs to regulate c-MYC in cancer” (Texas Tech University System, priority 2019, dated 2025).
# Assays:
# [1] = system: small cell lung cancer cell lines; assay: Effect of combination with ABT-737 on c-MYC, cyclin A, PARP and caspase 3; format: cell-based, human; settings: combined with ABT-737
# Experimental: (§1) FIGS. 12A-12F illustrate the combination cytotoxic activity of D8 (i.e., narciclasine) and ABT-737 (a BCL-2 inhibitor) in two small cell lung cancer cell lines. The effect of the combination on c-MYC, pOCT4, OCT4, cyclin A, BCL-2 family of proteins, the cleavage of and caspase-3 and PARP were evaluated.
# (§2) Next, Applicants sought to check the activity of narciclasine when combined with other active agents. Venetoclax is currently indicated for chronic lymphocytic leukemia (CLL) and small lymphocytic lymphoma (SLL) patients. […] Thus, Applicants combined narciclasine with ABT-737/ABT-263, pan BCL-2 inhibitors or venetoclax (also known as ABT-199, a BCL-2 inhibitor) to examine the effect of the combination.
# NCI-H1048 xenograft = assay: In vivo xenograft activity, NCI-H1048; set-up: species or system mice
# Source text: FIGS. 13A-13I show in vivo xenograft activity of M3814, a DNA-PK inhibitor, and ABT-263, a BCL-2 inhibitor, in mice carrying H1048, a human small cell lung cancer cell line.
# FIGS. 14A-14I show in vivo xenograft activity of D8 (narciclasine), a DNA-PK interaction inhibitor, and ABT-199, a BCL-2 inhibitor, in mice carrying H1048, a human small cell lung cancer cell line.
# In vivo xenograft activity was examined for narciclasine or M3814 in combination with ABT-263 or ABT-199 in two xenograft models of small cell lung cancer, NCI-H1048 and NCI-H847.
# SMS-LHN (LHN) cells = assay: 13-cisRA response of SMS-LHN neuroblastoma cells; format: cell-based, human; settings: 5 μM, initial response
# Source text: (§3) FIGS. 4A and 4B provide data showing that protein expression of c-MYC and MYCN in patient-derived neuroblastoma cell lines established from clinical samples collected at diagnosis (Dx) (FIG. 4A) and progressive disease 5 (PD) (FIG. 4B). CHLA-20 and SK—N-BE(2) were used as the positive controls for c-MYC and MYCN. FIG. 4C1 and FIG. 4C2 show dot plots quantitating immunoblotting (IB) data in FIGS. 4A and 4B. The values were normalized in two ways by the intensity of specific proteins in CHLA-20 for c-MYC or SK—N-BE(2) for MYCN and GAPDH. […] Cells were treated with 5 μM 13-cisRA for 14 days. […] Triplicate samples of 10,000 events were collected as single cells for the analyses. […] Relative quantitation (2^−ΔΔCT) was used for the analyses of mRNA expression. […] LDH (cytosolic protein) and Lamin A/C (nuclear protein) were used as fractionation quality controls.
# To determine whether increased c-MYC in PD cell lines might be due to 13-cisRA treatment, the SMS-LHN (LHN) human neuroblastoma cell line (MYCN expression without genomic amplification) was treated with a clinically achievable concentration of 13-cisRA (5 μM), following the clinical dosing schedule used in high-risk patients (2 wks on, 2 wks off, x 6 cycles).
# LHN-R cells = assay: 13-cisRA response (neurite outgrowth, cell cycle) of resistant LHN-R cells; format: cell-based, human
# Source text: as §3
# MetLuc enzymatic activity was measured. CMV immediate early promoter (pCMV IE) was a positive control. […] Left: Locations of the four sets of amplicons (a, b, c, and d) used to detect ChIP-enriched DNA fragments in the MYC enhancer region shown relative to the transcription start site (arrow). Right: PCR results detecting enriched fragments from ChIP assays of each of the 4 amplicons using ChIP-grade OCT4-1 and OCT4-2 antibodies or control normal rabbit IgG antibody. […] Cells were imaged by confocal microscopy. Blue: DAPI stained nucleus, Green: Phalloidin.
# FIGS. 6A-6G show OCT4 interacting proteins by protein identification (ID) and post-translational modification (PTM) and verification of the protein expression and the role of the interacting MK2 protein in 13-cisRA resistance. […] M: Marker, C: cytosolic, N: nuclear. For protein ID, the entire lanes were analyzed, and for PTM, the specific OCT4 band was subjected to mass spectrometry analyses. (Right) OCT4 protein sequence with PTM status identified by mass spectrometry. Underline: mass spectrometry coverage, Green: not phosphorylated or acetylated, Red: phosphorylated, acetylated, or undetermined. […] The direct interaction between OCT4 and MK2 is also confirmed by Ni-NTA pull down (Middle) or immunoprecipitation by FLAG (Right) using purified proteins. […] Cells stably transduced with non-targeting NT-shRNA or MAPKAPK2-shRNA were treated with vehicle control or 13-cisRA for 14 days. […] Cells stably transduced with non-targeting NT-shRNA or MAPKAPK2-shRNA were treated with vehicle control or 13-cisRA for 14 days. […] Cells stably transduced with non-targeting NT-shRNA (20±2% vs 18±3%, 15 p=0.17) or MAPKAPK2-shRNA (19±4% vs 5±1%, p<0.01) were treated with vehicle control or 13-cisRA for 14 days.
# In LHN-R treated with 13-cisRA, mRNA and protein expression of c-MYC was increased while MYCN remained suppressed (FIGS. 4F and 4G).
# Thus, Applicants focused on OCT4 and generated a stable clone of LHN-R with POU5F1 knockdown using a lentiviral vector system by transducing five different short hairpin RNA sequences (POU5F1-shRNA-1 to -5) to evaluate the effect of OCT4 on 13-cisRA resistance in neuroblastoma cells. POU5F1 knockdown decreased c-MYC and Cyclin A protein expression in LHN-R cells (FIG. 5G) relative to a non-targeted control shRNA (NT-shRNA).
# [2] = system: small cell lung cancer cell lines; assay: Cytotoxicity in 16 small cell lung cancer cell lines; format: cell-based, human
# Source text: FIGS. 10A-10E show cytotoxicity of D8 (i.e., narciclasine) and several DNA-PK inhibitors (NU7441, M3814, CC-115, AZD7648) in 16 small cell lung cancer cell lines with high (black and gray bars) or low (white bars) c-MYC expression.
# In this Example, Applicants examined the cytotoxic activity of narciclasine (i.e., D8) in comparison to DNA-PK inhibitors that are commercially available (including NU7441, M3814, CC-115, and AZD7648) in 16 small cell lung cancer cell lines. […] The IC50 values for narciclasine was less than 100 nM in all cell lines except NCI-H889.
# [3] = system: NCI-H82, NCI-H847, NCI-H889, NCI-H417 cells; assay: c-MYC, pOCT4S93 and apoptosis markers in small cell lung cancer cell lines; format: cell-based, human; settings: 0.3 to 2.5 μM, compared to vehicle control
# Experimental: FIG. 11 illustrates the effect of narciclasine in c-MYC protein expression. Narciclasine's effect on pOCT4S93 and OCT4 as well as apoptosis (measured by caspase and PARP cleavage) are also assessed in four small cell lung cancer cell lines with high c-MYC expression.
# Compared to vehicle control, narciclasine reduced c-MYC and pOCT4S93 and cleaved PARP and caspase 3 in four small cell lung cancer cell lines (NCI-H82, NCI-H847, NCI-H889, NCI-H417) at the concentration range between 0.3 and 2.5 μM. These experimental results, which are summarized in FIG. 11, indicate that narciclasine induces apoptosis as a cell death mechanism in small cell lung cancer cells.
# NCI-H847 cell line = assay: Combination cytotoxicity with ABT-737 in NCI-H847; format: cell-based, human; settings: combined with ABT-737, narciclasine 10 and 20 nM
# Experimental: as §1, §2
# NCI-H1048 cell line = assay: Combination cytotoxicity with ABT-737 in NCI-H1048; format: cell-based, human; settings: combined with ABT-737, narciclasine 10 and 20 nM
# Experimental: as §1, §2
# NCI-H847 xenograft = assay: In vivo xenograft activity, NCI-H847; settings: NCI-H847 xenograft mice
# Source text: FIGS. […]
# In NCI-H847 xenograft mice, narciclasine as a single agent extended the event-free survival of mice compared with vehicle control.
# MOLM-14 and NB4 cells = assay: c-MYC expression and apoptosis in MOLM-14 and NB4; format: cell-based, human; settings: 24 hours, 100 to 200 nM
# Source text: FIG. 17 provides data illustrating the effect of D8 (narciclasine) in the expression of c-MYC and apoptosis in two human acute myelogenous leukemia, MOLM-14 and NB4.
# Of the six cell lines, two cell lines (MOLM-14 and NB4) were used to test the effect of narciclasine in c-MYC expression.
# [4] = system: LHN-R, CHLA-20, COG-N-289, COG-N-334, COG-N-415 cells; assay: MK2 inhibitor effect on pOCT4, c-MYC, Cyclin A in neuroblastoma cell lines; format: cell-based, human
# Experimental: FIGS. 8A-8H show higher pMK2 and pOCT4^S111 in PD with high c-MYC. […] CHLA-20 was used as the control for the two membranes. […] The values were normalized in two ways by the expression of specific proteins in CHLA-20 and GAPDH. […] The expression of pOCT4^S111, OCT4, c-MYC, and Cyclin A was evaluated in subcellular fractions. […] The cells transduced with a doxycycline-inducible system to exogenously express OCT4WT or OCT4 S111A mutant, treated with doxycycline (Dox) for 48h followed by cycloheximide (CHX) incubation for various times. The whole cell lysates were subjected to sill immunoblotting.
# Thus, pMK2-mediated increased c-MYC expression is not limited to tumors exposed to 13-cisRA. When S111 residue of OCT4 was mutated pOCT4^S111 were not detected by immunoblotting (FIG. 8G). […] MK2 inhibition by a small molecule MK2 inhibitor results in decreased pOCT4.
# [5] = single agent, compared with control, NCI-H1048 xenografted mice
compound,measurement,setting,value
"COc1ccc([C@@H](O)c2cc(-c3ncnc4cc(N5CCOCC5)ccc34)c(F)cc2Cl)nn1 [M3814, alpha S-[2-chloro-4-fluoro-5-[7-(4-morpholinyl)-4-quinazolinyl]phenyl]-6-methoxy-3-pyridazinem ethano, reference compound]",c-MYC downregulation effect and cyclin A suppression effect,[1],higher
same,event-free survival,"NCI-H1048 xenograft; combined with ABT-263, NCI-H1048 xenografted mice",significantly extended
same,event-free survival,NCI-H1048 xenograft; [5],did not affect
"CC1=C(/C=C/C(C)=C/C=C/C(C)=C\C(=O)O)C(C)(C)CCC1 [13-cisRA, 13-cis-retinoic acid]",response to 13-cisRA,SMS-LHN (LHN) cells,"arrested proliferation, neurite outgrowth and decreased MYCN protein"
same,neurite outgrowth and cell cycle arrest,"LHN-R cells; LHN-R after six cycles, 10 days of 13-cisRA treatment",did not show
same,cell cycle analysis (FIG. 6G),"LHN-R cells; MAPKAPK2-shRNA LHN-R, 13-cisRA 14 days (vehicle 19±4%)",5±1%
same,cell cycle analysis (FIG. 6G),"LHN-R cells; NT-shRNA LHN-R, 13-cisRA 14 days (vehicle 20±2%)",18±3%
same,S-phase content,"LHN-R cells; NT-shRNA-transduced LHN-R, 13-cisRA 14 days (vehicle 26±3%)",28±5%
same,S-phase content,"LHN-R cells; POU5F1 knockdown LHN-R, 13-cisRA 14 days (vehicle 23±4%)",11±1%
O=C1N[C@@H]2C(=C[C@H](O)[C@@H](O)[C@H]2O)c2cc3c(c(O)c21)OCO3 [narciclasine],IC50,[2]; all of 16 small cell lung cancer cell lines except NCI-H889,< 100 nM
same,potency in cytotoxicity relative to the agents tested,"[2]; compared with NU7441, M3814, CC-115, AZD7648",highest potency
same,PARP and caspase 3 cleavage,[3],cleaved
same,c-MYC and pOCT4S93 expression,[3],reduced
same,combination cytotoxic activity,NCI-H847 cell line,synergistic cytotoxic activity
same,combination cytotoxic activity,NCI-H1048 cell line,synergistic cytotoxic activity
same,c-MYC downregulation effect and cyclin A suppression effect,[1],higher
same,event-free survival,"NCI-H1048 xenograft; combined with ABT-199, NCI-H1048 xenografted mice",significantly extended
same,event-free survival,NCI-H1048 xenograft; [5],did not affect
same,event-free survival,"NCI-H847 xenograft; combination with ABT-199, compared with the single agents",significantly longer
same,event-free survival,"NCI-H847 xenograft; single agent, compared with vehicle control",extended
same,PARP and caspase 3 cleavage,MOLM-14 and NB4 cells,observed
same,c-MYC expression,MOLM-14 and NB4 cells,substantially decreased
Cc1ccc(-c2ccc3c(ccc4sc5c(c43)NC[C@@H](C)NC5=O)n2)cn1 [PF3644022],"pOCT4, OCT4S111, c-MYC and Cyclin A",[4],decreased
